Tests used:
[1] = tested on: WT mouse spleen basophils (splenocytes); assay: CXCR4 expression on mouse spleen basophils ex vivo; type: cell-based; settings: for CXCR4 expression on other WT splenocytes including T and B cells: data not shown; for CXCR4 expression on spleen WT basophils ex vivo: specific agonists, 24 hours ex vivo
Source text: (a) Ex vivo migration of basophils from whole WT or Lyn^−/− splenocytes to CXCL12. (b) CXCR4 expression levels on basophils from the indicated compartments in aged WT (n=16) and Lyn^−/− (n=14) animals. Data are normalized to the mean CXCR4 expression level of WT blood basophils. Statistical analyses placed directly above each bar compared the value for one given compartment to the blood compartment of the corresponding genotype. Statistical analyses between both genotypes for each compartment are also indicated. (c) Basophil number per peritoneum in young WT mice 24 hours after intraperitoneal (ip) injection of PBS or CXCL12 and compared to steady state (−) values (n=13/15/5, respectively). (d) CXCR4 expression levels on basophils from mesenteric lymph nodes (mLN) of young Lyn^−/− mice 24 hours after PBS or PGD2 ip injection normalized to PBS injected mice values' mean. (e) Basophil number in mLN of young Lyn^−/− mice 24 hours after ip injection of the indicated compound(s). (f) CXCR4 expression levels on spleen basophils from 15 weeks old WT mice incubated ex vivo for 24 hours with the indicated compound and normalized to the control values' mean. […] Basophils number and CXCR4 expression were assessed by flow cytometry. Statistical analyses were by unpaired t test with Welch's correction (a-e) and by paired Student t test (f).
(a-b) Relative CXCR4 expression levels on basophils (defined as CD19^−TCRβ^−CD3^−CD49b+FcεRIα^+CD123^+)CD45^lo and T cells (defined as CD45^+CD3^+TCRβ^+ cells) in splenocytes incubated 4 hours without (−) or with the indicated concentration of N6,2′-O-dibutyryl-adenosine 3′:5′-cyclic monophosphate (db-cAMP) or 1 μM PGD2 as determined by flow cytometry. Statistical analyses were by paired Student t tests. NS: not significant, *: P<0.05, **: P<0.01, ***: P<0.001. (c) Relative CXCR4 expression levels on spleen basophils (defined as in (a)) incubated 4 hours without (0) or with the indicated concentration (nM) of the indicated compound(s). DK-PGD2: 13,14-dihydro-15-keto-PGD2 (PTGDR-2 specific agonist); BW245c: 3-(3-Cyclohexyl-3-hydroxypropyl)-2,5-dioxo-(R*,S*)-(±)-4-imidazolineheptanioc acid (PTGDR-1 specific agonist) as determined by flow cytometry. Statistical analysis was by two-ways ANOVA followed by a Tukey's multiple comparisons test. (a-c) Data are normalized to control value mean (per group, n=4 to 8). Data are expressed as mean+s.e.m. All experiments were realized with splenocytes from 8-12 weeks old WT mice.
(§1) Human basophils and mouse splenocytes were cultured in culture medium (RPMI 1640 with Glutamax and 20 mM HEPES, 1 mM Na-pyruvate, non-essential amino acids 1× (all from Life Technologies, Saint-Aubin, France), 100 μg/ml streptomycin and 100 U/ml penicillin (GE Healthcare, Vélizy, France) and 37.5 μM β-mercaptoethanol (Sigma-Aldrich, MO)) supplemented with 20% heat-inactivated fetal calf serum at 37° C. and 5% CO2. 18 hours-long stimulation prior to migration assays were done in culture medium at 1×10^6 cells per mL by adding 1 nM of IL-3 (Peprotech), 1 μM of prostaglandin D2 (PGD2), 1 μM of the PTGDR-1 specific agonist BW245c, 1 μM of the PTGDR-2 specific agonist 13,14-dihydro-15-keto Prostaglandin D2 (DK-PGD2) (all from Cayman chemicals) or 5 ng/mL of anti-IgE (mouse anti-human IgE or rat anti-mouse IgE, both from Thermo Scientific). All cells were washed twice before any migration assay. Control conditions were always with the same vehicle concentration as stimulated conditions.

CXCR4 = CXCR4 (Homo sapiens, UniProt P61073); settings: cited from earlier work
Lyn−/− mice = assay: PGD2-induced basophil in vivo migration assay; parameters: species or system mouse
purified human basophils = assay: 18 hours stimulation of purified human basophils, marker expression and migration towards CXCL12; type: cell-based
Source text: Human basophils were purified to >95% by negative selection with the Human Basophils Enrichment kit (Stemcell Technologies, Grenoble, France) for culture, stimulation and chemotaxis experiments. In some chemotaxis experiments, human basophils were enriched to 3-5% by negative selection with the Human PE positive selection kit (Stemcell Technologies) by using a cocktail of PE-conjugated anti-CD3, CD19 and CD89 (BioLegend). These kits were used following manufacturer instructions.
as §1
Migration assays were performed in culture medium supplemented with 0.1% bovine serum albumin (BSA, Sigma-Aldrich) in Transwell 5 μm polycarbonate permeable support 6.5 mm inserts (Corning, N.Y., N.Y.) for 3 hours at 37° C. and 5% CO2 with 1×10^5 purified basophils or 2×10^5 enriched basophils at 1×10^6 cells per mL. Purified or enriched basophils from the upper and bottom chambers were counted at the end of the assay. Basophil content and phenotype was determined by flow cytometry by analyzing more than 100 basophils. Purification or enrichment of human basophils didn't show any difference in the measured migration for all tested chemokines. Migration was defined as the ratio between the number of basophils in the bottom chamber and the number of basophils in the upper plus the bottom chambers. Spontaneous migration was defined as the migration observed without any chemokine in the bottom chamber. Corrected migration was defined as the difference between specific and spontaneous migration. For migration assays the following concentrations (known to be optimal) were used for each compound: Human IL-3: 300 pM (Peprotech), human CCL3, CCL5, and CXCL12: 50 nM; CXCL2 (all from BioLegend) and PGD2 (Cayman chemicals): 100 nM. Migration to human CCL3, CCL5, CXCL2, and PGD2 was done in the presence of IL-3 at 300 pM in both chambers. Migration with IL-3 represents chemokinetism: IL-3 was added in both chambers to the same concentration and compared to the spontaneous migration observed without IL-3. Effects of 24 hours incubation with IL-3 or PGD2 (as described above) on basophil apoptosis were estimated by using the FITC Annexin V Apoptosis Detection Kit from BD Biosciences and used accordingly to manufacturer's instructions.

12 weeks old Lyn−/− mice = assay: Acceleration of lupus-like disease development by repeated PGD2 injections
Source text: (a,b) Proportion of basophils (CD19^−TCRβ^−CD49b^+FcεRIα^+CD123^+)CD45^lo) among singlets living CD45^+ cells in mesenteric (a) and other (cervical, brachial and inguinal) lymph nodes (b) from 10 to 12 weeks-old Lyn^−/− mice injected over ten days with PBS (open circles) or PGD2 alone (open squares), and PGD2 injected and basophil depleted (MAR-1) (open diamonds) or not (IgG) (open triangles) as described in the methods. (c) IA-IE expression levels on LN basophils from mice as in (b). […] (d,e) Proportion of short lived plasma cells CD19^+CD138^+ among singlets living CD45^+ cells in spleen (d) and lymph nodes (e) in the same mice as in (b). (f) Representative immunofluorescence staining for C3 and IgG deposits in kidneys from mice as indicated in (b) (scale bar=1 mm) and their corresponding quantifications in PBS (n=3), PGD2 (n=4), PGD2+control IgG (n=3) and PGD2+MAR-1 (n=3) injected mice. (g) Fold increase in urine albumin/creatinine ratio before and after PBS or PGD2 10 days-long treatment. (a-e) Basophil, plasma cell numbers and IA-IE expression levels were assessed by flow cytometry. (a-g) Data are expressed as means±s.e.m. […] One representative out of three independent experiments is shown.
For acceleration of disease development by PGD2 injections, 12 weeks old Lyn^−/− mice were injected ip with 20 nmoles of PGD2 or vehicle in PBS, every two days for 10 days, for a total of 6 injections. Mice were analyzed the day following the last injection. […] Cell viability was assessed by the utilization of Ghost Dye Violet 510 (Tonbo, San Diego, Calif.).
Quantification of C3 and IgG deposits was realized by using ImageJ software (v1.49p, NIH, USA). A minimum of 20 glomeruli was quantified per kidney. For assessment of kidney function the albumin/creatinine ratio (ACR) was determined. Urine was collected from each mouse before and after treatment. The albumin concentration was measured with a mouse albumin ELISA (Bethyl laboratories, Montgomery, Tex.). A creatinine assay (R&D systems, Minneapolis, Minn.) was used to determine urine creatinine concentrations. Results are expressed as a fold increase corresponding to the ratio of the ACR after/before treatment.

WT mice = assay: CXCL12-induced basophil in vivo migration assay; parameters: species or system mouse; settings: intraperitoneal injection, 24 hours
[2] = ip every two days over ten days

Chain of CXCR4 (P61073 whole entry, species assumed): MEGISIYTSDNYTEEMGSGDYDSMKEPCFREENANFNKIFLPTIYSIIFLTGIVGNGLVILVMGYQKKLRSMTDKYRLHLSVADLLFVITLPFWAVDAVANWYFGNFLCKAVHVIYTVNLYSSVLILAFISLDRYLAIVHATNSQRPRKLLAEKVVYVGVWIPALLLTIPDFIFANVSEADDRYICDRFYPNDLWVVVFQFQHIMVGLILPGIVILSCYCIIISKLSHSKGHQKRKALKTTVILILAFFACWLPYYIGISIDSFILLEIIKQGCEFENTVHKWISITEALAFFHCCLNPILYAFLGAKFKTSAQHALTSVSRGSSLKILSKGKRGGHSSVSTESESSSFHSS

O=C(O)CCCCCCC1C(=O)NC(=O)N1CCC(O)C1CCCCC1 (racemic) [BW245c, 3-(3-Cyclohexyl-3-hydroxypropyl)-2,5-dioxo-(R*,S*)-(±)-4-imidazolineheptanioc acid]
CXCR4 expression on other WT splenocytes including T and B cells [1]: significant but much lower increase
CXCR4 expression on spleen WT basophils ex vivo [1]: up-regulation

c1cc(CN2CCCNCCNCCCNCC2)ccc1CN1CCCNCCNCCCNCC1 [AMD3100]
known effects of CXCR4 antagonism (CXCR4): induce a release of hematopoietic stem cells and interfere with homeostatic functions
PGD2-induced basophil recruitment in SLOs and peritoneum (Lyn−/− mice; co-injection with PGD2, ip): completely abolished

CCCCCC(=O)CCC1C(=O)CC(O)C1C/C=C\CCCC(=O)O (stereo not shown) [DK-PGD2, 13,14-dihydro-15-keto-PGD2]
CXCR4 expression on other WT splenocytes including T and B cells [1]: significant but much lower increase
CXCR4 expression on spleen WT basophils ex vivo [1]: up-regulation

CCCCC[C@H](O)/C=C/[C@H]1C(=O)C[C@H](O)[C@@H]1C/C=C\CCCC(=O)O [PGD2, 9α,15S-dihydroxy-11-oxo-prosta-5Z,13E-dien-1-oic acid]
CXCR4 expression on mLN basophils (Lyn−/− mice; i.p. injection, 24 hours): increased
basophil accumulation in SLOs and peritoneum (Lyn−/− mice; i.p. injection, 24 hours): drove their accumulation
peripheral basopenia compared to steady state (Lyn−/− mice; ip injection, data not shown): significant, but transient
basophil apoptosis (purified human basophils; 1 μM, data not shown): without inducing
CXCR4 expression on basophils (purified human basophils; 18 hours priming, 1 μM PGD2 or sub-optimal anti-IgE): enhanced
PTGDR-2 internalization (purified human basophils; 18 hours, 1 μM, data not shown): induced
FcεRIα expression on basophil surface (purified human basophils; PGD2 priming, data not shown): slight increase
migration towards CXCL12 (purified human basophils; after 18 hours priming): enhanced
CXCR4 surface expression of other immune cell types (12 weeks old Lyn−/− mice; data not shown): didn't show any significant increase
albuminuria (12 weeks old Lyn−/− mice; end of protocol, versus PBS-injected): increased albuminuria
CD19+CD138+ plasma cells in SLOs (12 weeks old Lyn−/− mice; [2]): increased proportion
IA-IE expression on basophils (12 weeks old Lyn−/− mice; [2]): increased
basophil accumulation in SLOs (12 weeks old Lyn−/− mice; [2]): accumulated systemically
immune complexes in the kidney (C3 and IgG deposition) (12 weeks old Lyn−/− mice; [2]): increased deposition
basophil CXCR4 expression levels (12 weeks old Lyn−/− mice; ip every two days over ten days, data not shown): increased
CXCR4 externalization by T cells ([1]; 1 μM, 4 hours ex vivo): unable

CCCC(=O)Nc1ncnc2c1ncn2[C@@H]1O[C@@H]2COP(=O)(O)O[C@H]2[C@H]1OC(=O)CCC [db-cAMP, N6,2′-O-dibutyryl-adenosine 3′:5′-cyclic monophosphate]
CXCR4 externalization by mouse WT spleen basophils ([1]; 4 hours ex vivo): externalized
sensitivity of basophils versus T cells to the compound (CXCR4 externalization) ([1]; 4 hours ex vivo): 100 fold

CXCL2: chemokine known to have an effect on basophils
increased CXCR4 externalization ex vivo as PGD2 did (purified human basophils; data not shown): None

CXCL12: C—X—C motif Ligand 12, chemokine; murine CXCL12 injected ip
in vivo basophil migration to the injection site and draining mesenteric lymph nodes (WT mice): induced

B1: CCL3: chemokine known to have an effect on basophils (protein, UniProt P10147 24-92, looked up)
C-C motif chemokine 3: SLAADTPTACCFSYTSRQIPQNFIADYFETSSQCSKPGVIFLTKRSRQVCADPSEEWVQKYVSDLELSA
increased CXCR4 externalization ex vivo as PGD2 did (purified human basophils; data not shown): None

B2: CCL5: chemokine known to have an effect on basophils (protein, UniProt P13501 24-91, looked up)
C-C motif chemokine 5: SPYSSDTTPCCFAYIARPLPRAHIKEYFYTSGKCSNPAVVFVTRKNRQVCANPEKKWVREYINSLEMS
increased CXCR4 externalization ex vivo as PGD2 did (purified human basophils; data not shown): None

Source: patent US11559513B2, “PTGDR-1 and/or PTGDR-2 antagonists for preventing and/or treating systemic lupus erythematosus” (INSTITUT NATIONAL DE LA SANTE ET DE LA RECHERCHE MEDICALE …, priority 2015, dated 2023)
